# Measurements as given in PubChem BioAssay AID2060329 (Molecular Pharmacology Branch, DTP, NCI, 2025).
# “And” between values parts separate entries of the source, which are not always exact repeats. Identical values can stand only once.
# System: MCF7 multi-cell spheroids with HUVEC/MSC, viability
# Assay: Anticancer human tumor MCF7 cell line growth inhibition [IpAb];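 further: spheroids exposed to agents for seven days before readout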
# Settings: for viability, T/C: stronger effect = lower value
# Text: Combinatorial screen of targeted agents with ipatasertib and abemaciclib in multi-cell type tumor spheroids
# A high-throughput screen of multi-cell type tumor spheroids was designed to identify active combinations of targeted small molecules and ipatasertib or abemaciclib. Complex spheroids include a stromal component modeled by human endothelial cells (HUVEC) and fibroblasts modeled by human mesenchymal stem cells (MSCs). The concentration ranges selected for each drug and investigational agent were based upon clinically achievable concentrations if the clinical Cmax of the agent was known.
# Compounds. The drugs and investigational agents: ipatasertib (NSC767898), abemaciclib(NSC768073), selumetinib (NSC741078), trametinib (758246), adavosertib (NSC754352), everolimus (NSC733504), sapanisertib (NSC764658), vemurafenib (NSC761431), venetoclax (NSC766270), copanlisib (NSC809693), apelisib (NSC765974), palbociblib (NSC758247), vemurafenib (NSC761431), dabrafenib (NSC764134), ravoxertinib (NSC781343), BMS-387032 (NSC767048), sotorasib (NSC818433), talazoparib (NSC767125) and afursertib (NSC778305), were obtained from the National Cancer Institute (NCI) Developmental Therapeutics Program Chemical Repository. The FDA-approved anticancer drug set is available from the NCI Developmental Therapeutics Program. […] The stock solutions were prepared in dimethyl sulfoxide (DMSO, Sigma-Aldrich, St. Louis, MO, cat. D2650) at 800-fold the tested concentration and stored at -70 degrees C prior to their use. All drugs and investigational agents were tested over a range starting from a high concentration at or near the clinical Cmax and decreasing in half-log increments. If the clinical Cmax for an agent had not been determined, the highest concentration tested was 10 microM.
# NCI60 Cell Culture. NCI60 cell lines were obtained from the NCI Developmental Therapeutics Program Tumor Repository. For each lot of cells, the Repository performed Applied Biosystems AmpFLSTR Identifiler testing with PCR amplification to confirm consistency with the published Identifier STR profile for each cell line. Cells were kept in continuous culture for no more than 20 passages. The optimal seeding densities for each of the cell lines at each time point assessed were determined prior to performing the concentration response studies. Briefly, the NCI60 human tumor lines were grown as monolayers in RPMI 1640 medium supplemented with 10% FBS and 2 mmol/L L-glutamine.
# An additional 9 lines were from the NCI60 cell line panel including MDA-MB-231 breast carcinoma, MDA-MB-468 breast carcinoma, MCF7 breast carcinoma, Hs578T breast carcinoma, MALME-3M melanoma, SK-MEL-2 melanoma, SK-OV-3 ovarian carcinoma, DU-145 prostate carcinoma, PC-3 prostate carcinoma, all cell lines along with major genetic alterations are listed on Table 2. Pooled donor human umbilical vein endothelial cells (HUVEC, Lonza, cat. CC-2519) and human mesenchymal stem cells (hMSC, Lonza, cat. PT-2501) were purchased from Lonza (Walkersville, MD).
# PDMR cell lines were grown in complete medium (DC medium): Dulbecco's modified Eagle's medium (DMEM)/F12 supplemented with 5% fetal bovine serum (FBS), 2 mM L-glutamine, 100 U/mL penicillin and 100 µg/ml streptomycin, 0.4 µg/ml hydrocortisone, 10 ng/ml epidermal growth factor (EGF) recombinant human protein, 24 µg/mL adenine, and 0.1 mg/mL primocin. During culture from frozen stock vials, PDMR cells were cultured in the same medium containing 10 µM Y-27632 (see Table 3). The PDCs were cultured in complete DMEM/F12 media without 10 microM Y-27632 dihydrochloride for at least two passages prior to the screen. The pooled donor HUVEC and hMSC were cultured in endothelial cell growth medium 2 (PromoCell, Heidelberg, Germany, cat. C-22011) and mesenchymal stem cell growth medium 2 (PromoCell, cat. C-28009), respectively. For all experiments, HUVEC and hMSC were used at passages </=5.
# […]
# [1] = curve of first compound, second compound 0.1 µM
# [2] = curve of first compound, second compound 0.316 µM
# [3] = curve of first compound, second compound 1 µM
# [4] = curve of first compound, second compound 3.16 µM
# [5] = curve of first compound, second compound 10 µM
# [6] = second compound 0.1 µM, first compound 0.0316 µM
# [7] = second compound 0.1 µM, first compound 0.1 µM
# [8] = second compound 0.1 µM, first compound 0.316 µM
# [9] = second compound 0.1 µM, first compound 1 µM
# [10] = second compound 0.1 µM, first compound 3.16 µM
# [11] = second compound 0.1 µM, first compound 10 µM
# [12] = second compound 0.316 µM, first compound 0.0316 µM
# [13] = second compound 0.316 µM, first compound 0.1 µM
# [14] = second compound 0.316 µM, first compound 0.316 µM
# [15] = second compound 0.316 µM, first compound 1 µM
# [16] = second compound 0.316 µM, first compound 3.16 µM
# [17] = second compound 0.316 µM, first compound 10 µM
# [18] = second compound 1 µM, first compound 0.0316 µM
# [19] = second compound 1 µM, first compound 0.1 µM
# [20] = second compound 1 µM, first compound 0.316 µM
# [21] = second compound 1 µM, first compound 1 µM
# [22] = second compound 1 µM, first compound 3.16 µM
# [23] = second compound 1 µM, first compound 10 µM
smiles,measurement,setting,value
CC(=O)c1c(C)c2cnc(Nc3ccc(N4CCNCC4)cn3)nc2n(C2CCCC2)c1=O + CC(C)NCC(C(=O)N1CCN(c2ncnc3c2C(C)CC3O)CC1)c1ccc(Cl)cc1,IC50,[1],> 0.3 µM
same,IC50,[2],> 0.3 µM
same,IC50,[3],0.275 µM
same,IC50,[4],0.0236 µM
same,IC50,[5],< 0.000949 µM
same,"viability, T/C","second compound 0.1 µM, first compound 0.000949 µM",96.3%
same,"viability, T/C","second compound 0.1 µM, first compound 0.003 µM",100%
same,"viability, T/C","second compound 0.1 µM, first compound 0.00949 µM",97.1%
same,"viability, T/C","second compound 0.1 µM, first compound 0.03 µM",90.7%
same,"viability, T/C","second compound 0.1 µM, first compound 0.0949 µM",89.6%
same,"viability, T/C","second compound 0.1 µM, first compound 0.3 µM",86.8%
same,"viability, T/C","second compound 0.316 µM, first compound 0.000949 µM",80.9%
same,"viability, T/C","second compound 0.316 µM, first compound 0.003 µM",82.7%
same,"viability, T/C","second compound 0.316 µM, first compound 0.00949 µM",87.9%
same,"viability, T/C","second compound 0.316 µM, first compound 0.03 µM",81.8%
same,"viability, T/C","second compound 0.316 µM, first compound 0.0949 µM",77.1%
same,"viability, T/C","second compound 0.316 µM, first compound 0.3 µM",73.9%
same,"viability, T/C","second compound 1 µM, first compound 0.000949 µM",67.4%
same,"viability, T/C","second compound 1 µM, first compound 0.003 µM",71.4%
same,"viability, T/C","second compound 1 µM, first compound 0.00949 µM",63.1%
same,"viability, T/C","second compound 1 µM, first compound 0.03 µM",62.4%
same,"viability, T/C","second compound 1 µM, first compound 0.0949 µM",55.5%
same,"viability, T/C","second compound 1 µM, first compound 0.3 µM",49.9%
same,"viability, T/C","second compound 3.16 µM, first compound 0.000949 µM",45.1%
same,"viability, T/C","second compound 3.16 µM, first compound 0.003 µM",57.4%
same,"viability, T/C","second compound 3.16 µM, first compound 0.00949 µM",52.2%
same,"viability, T/C","second compound 3.16 µM, first compound 0.03 µM",48.2%
same,"viability, T/C","second compound 3.16 µM, first compound 0.0949 µM",46.9%
same,"viability, T/C","second compound 3.16 µM, first compound 0.3 µM",39.4%
same,"viability, T/C","second compound 10 µM, first compound 0.000949 µM",41.6%
same,"viability, T/C","second compound 10 µM, first compound 0.003 µM",42.7%
same,"viability, T/C","second compound 10 µM, first compound 0.00949 µM",36.9%
same,"viability, T/C","second compound 10 µM, first compound 0.03 µM",34%
same,"viability, T/C","second compound 10 µM, first compound 0.0949 µM",34.5%
same,"viability, T/C","second compound 10 µM, first compound 0.3 µM",23.2%
Cn1ncc(Cl)c1-c1cc(C(=O)NC(CN)Cc2cccc(F)c2)sc1Cl (configuration not stated),"viability, T/C",compound 0.0316 µM,89.2% and 85.5%
same,"viability, T/C",compound 0.1 µM,88.8% and 84.4%
same,"viability, T/C",compound 0.316 µM,79.7% and 72.8%
same,"viability, T/C",compound 1 µM,57.6% and 50.1%
same,"viability, T/C",compound 3.16 µM,8.42% and 19.3%
same,"viability, T/C",compound 10 µM,0.22% and 0.25%
same,IC50,curve of compound,1.17 µM and 0.998 µM
Cn1nccc1Nc1nccc(-c2ccn(C(CO)c3ccc(Cl)c(F)c3)c(=O)c2)n1 (configuration not stated) + CC(C)NCC(C(=O)N1CCN(c2ncnc3c2C(C)CC3O)CC1)c1ccc(Cl)cc1,IC50,[1],> 10 µM
same,IC50,[2],> 10 µM
same,IC50,[3],> 10 µM
same,IC50,[4],> 10 µM
same,IC50,[5],< 0.0316 µM
same,"viability, T/C",[6],82.7%
same,"viability, T/C",[7],85.4%
same,"viability, T/C",[8],91%
same,"viability, T/C",[9],116%
same,"viability, T/C",[10],113%
same,"viability, T/C",[11],98.5%
same,"viability, T/C",[12],72.7%
same,"viability, T/C",[13],77.4%
same,"viability, T/C",[14],78.3%
same,"viability, T/C",[15],77.6%
same,"viability, T/C",[16],99.6%
same,"viability, T/C",[17],76.8%
same,"viability, T/C",[18],65.2%
same,"viability, T/C",[19],66.7%
same,"viability, T/C",[20],74.4%
same,"viability, T/C",[21],74.6%
same,"viability, T/C",[22],77.7%
same,"viability, T/C",[23],77.5%
same,"viability, T/C","second compound 3.16 µM, first compound 0.0316 µM",51.9%
same,"viability, T/C","second compound 3.16 µM, first compound 0.1 µM",55%
same,"viability, T/C","second compound 3.16 µM, first compound 0.316 µM",52.1%
same,"viability, T/C","second compound 3.16 µM, first compound 1 µM",56.2%
same,"viability, T/C","second compound 3.16 µM, first compound 3.16 µM",64.2%
same,"viability, T/C","second compound 3.16 µM, first compound 10 µM",72.6%
same,"viability, T/C","second compound 10 µM, first compound 0.0316 µM",43.8%
same,"viability, T/C","second compound 10 µM, first compound 0.1 µM",41%
same,"viability, T/C","second compound 10 µM, first compound 0.316 µM",38.4%
same,"viability, T/C","second compound 10 µM, first compound 1 µM",49.4%
same,"viability, T/C","second compound 10 µM, first compound 3.16 µM",44.2%
same,"viability, T/C","second compound 10 µM, first compound 10 µM",44.2%
CCCS(=O)(=O)Nc1ccc(F)c(C(=O)c2c[nH]c3ncc(-c4ccc(Cl)cc4)cc23)c1F + CCN1CCN(Cc2ccc(Nc3ncc(F)c(-c4cc(F)c5nc(C)n(C(C)C)c5c4)n3)nc2)CC1,IC50,"curve of first compound, second compound 0.01 µM",> 10 µM
same,IC50,"curve of first compound, second compound 0.0316 µM",> 10 µM
same,IC50,[1],> 10 µM
same,IC50,[2],> 10 µM
same,IC50,[3],8.1 µM
same,"viability, T/C","second compound 0.01 µM, first compound 0.0316 µM",97.8%
same,"viability, T/C","second compound 0.01 µM, first compound 0.1 µM",106%
same,"viability, T/C","second compound 0.01 µM, first compound 0.316 µM",97.5%
same,"viability, T/C","second compound 0.01 µM, first compound 1 µM",90.1%
same,"viability, T/C","second compound 0.01 µM, first compound 3.16 µM",93.4%
same,"viability, T/C","second compound 0.01 µM, first compound 10 µM",84%
same,"viability, T/C","second compound 0.0316 µM, first compound 0.0316 µM",89.6%
same,"viability, T/C","second compound 0.0316 µM, first compound 0.1 µM",96.7%
same,"viability, T/C","second compound 0.0316 µM, first compound 0.316 µM",91.7%
same,"viability, T/C","second compound 0.0316 µM, first compound 1 µM",91.9%
same,"viability, T/C","second compound 0.0316 µM, first compound 3.16 µM",85.3%
same,"viability, T/C","second compound 0.0316 µM, first compound 10 µM",70.1%
same,"viability, T/C",[6],101%
same,"viability, T/C",[7],96.8%
same,"viability, T/C",[8],100%
same,"viability, T/C",[9],99.4%
same,"viability, T/C",[10],88.4%
same,"viability, T/C",[11],77.3%
same,"viability, T/C",[12],98.3%
same,"viability, T/C",[13],103%
same,"viability, T/C",[14],94%
same,"viability, T/C",[15],101%
same,"viability, T/C",[16],93.1%
same,"viability, T/C",[17],76.5%
same,"viability, T/C",[18],101%
same,"viability, T/C",[19],94.7%
same,"viability, T/C",[20],92.5%
same,"viability, T/C",[21],87.8%
same,"viability, T/C",[22],72.9%
same,"viability, T/C",[23],44.5%
